test system: HCV genotype-1a variant with glutamine 30 changed to glutamate in the NS5A protein; format: cell-based; conditions: test compound titrated with BMS-790052 fixed at 200 nM; genotype 1a Q30E replicon
Procedure, shortened: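 Synergy was assessed by combining several fixed amounts of an NS5A-targeting compound with a titration of the second compound of interest.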

Compound	Fold-Synergistic 1a (Q30E)
CC(C)(C)OC(=O)NC1CCCCC1C(=O)N[C@H](c1nc(-c2ccc(-c3ccc(-c4c[nH]c([C@@H](NC(=O)C5CCCCC5NC(=O)OC(C)(C)C)C(C)(C)C)n4)cc3)cc2)c[nH]1)C(C)(C)C (single isomer, unassigned) [Compound W-23A]	>100 fold
CC(C)OC(=O)N[C@@H](C(=O)N[C@H](c1ncc(-c2ccc(-c3ccc(-c4cnc([C@@H](NC(=O)[C@H](NC(=O)OC(C)C)C(C)C)C(C)C)[nH]4)cc3)cc2)[nH]1)C(C)C)C(C)C [Compound S-250]	>100 fold
CO[C@H](C(=O)N[C@H](c1nc(-c2ccc(-c3ccc(-c4c[nH]c([C@@H](NC(=O)[C@@H](OC)c5ccccc5)C(C)(C)C)n4)cc3)cc2)c[nH]1)C(C)(C)C)c1ccccc1 [Compound P-18]	>100 fold
COc1ccccc1C(O)C(C)(C)C(=O)N[C@H](c1nc(-c2ccc(-c3ccc(-c4c[nH]c([C@@H](NC(=O)C(C)(C)C(O)c5ccccc5OC)C(C)(C)C)n4)cc3)cc2)c[nH]1)C(C)(C)C (single isomer, unassigned) [Compound N-125A]	>100 fold
CC(C)(C)[C@H](NC(=O)C(=O)N1CCC(F)(F)C1)c1nc(-c2ccc(-c3ccc(-c4c[nH]c([C@@H](NC(=O)C(=O)N5CCC(F)(F)C5)C(C)(C)C)n4)cc3)cc2)c[nH]1 [Compound W-22]	>100 fold
CC(C)(C)C(NC(=O)C1CC(=O)N(c2ccccc2O)C1)c1nc(-c2ccc(-c3ccc(-c4c[nH]c(C(NC(=O)C5CC(=O)N(c6ccccc6O)C5)C(C)(C)C)n4)cc3)cc2)c[nH]1 (mixture of isomers) [Compound S-265]	>100 fold
CC(C)[C@H](NC(=O)C1CC(F)(F)C1)c1ncc(-c2ccc3c(c2)Cc2cc(-c4cnc([C@@H](NC(=O)C5CC(F)(F)C5)C(C)C)[nH]4)ccc2-3)[nH]1.O=C(O)C(F)(F)F [Compound N-71]	>100 fold
CC1(C)CCN(C(=O)C(=O)N2C(C)(C)CCCC2(C)C)C1c1nc(-c2ccc(-c3ccc(-c4c[nH]c(C5N(C(=O)C(=O)N6C(C)(C)CCCC6(C)C)CCC5(C)C)n4)cc3)cc2)c[nH]1.O=C(O)C(F)(F)F.O=C(O)C(F)(F)F (stereo not drawn) [Compound W-246]	>100 fold
CC(C)(C)[C@H](NC(=O)C(C)(C)C1(O)CCC(F)(F)CC1)c1ncc(-c2ccc(C#Cc3ccc4nc([C@@H](NC(=O)C(C)(C)C5(O)CCC(F)(F)CC5)C(C)(C)C)[nH]c4c3)cc2)[nH]1 [Compound B48A]	>100 fold
CCCOC(=O)N[C@@H](C(=O)N[C@H](c1ncc(-c2ccc(-c3ccc(-c4cnc([C@@H](NC(=O)[C@H](NC(=O)OCCC)C(C)C)C(C)C)[nH]4)cc3)cc2)[nH]1)C(C)C)C(C)C [Compound S-248]	>100 fold
CN(C(=O)C(C)(C)C)[C@H](c1ncc(-c2ccc(-c3ccc(-c4cnc([C@@H](N(C)C(=O)C(C)(C)C)C(C)(C)C)[nH]4)cc3)cc2)[nH]1)C(C)(C)C [Compound B-207]	<10 fold
CC(C)(C)C(=O)N[C@H](c1nc(-c2ccc(-c3ccc(-c4c[nH]c([C@@H](NC(=O)C(C)(C)C)C(C)(C)C)n4)cc3)cc2)c[nH]1)C(C)(C)C [Compound N-46]	>100 fold
COc1ccccc1C(=O)N[C@H](c1nc(-c2ccc(-c3ccc(-c4c[nH]c([C@@H](NC(=O)c5ccccc5OC)C(C)(C)C)n4)cc3)cc2)c[nH]1)C(C)(C)C [Compound P-28]	>100 fold
CC(C)(C)[C@H](NC(=O)[C@@]1(N)C[C@@H]1c1ccccc1)c1nc(-c2ccc(-c3ccc(-c4c[nH]c([C@@H](NC(=O)[C@@]5(N)C[C@@H]5c5ccccc5)C(C)(C)C)n4)cc3)cc2)c[nH]1 [Compound W-41]	>100 fold
O=C(c1cnc(Cl)c(Cl)c1)N1CCC[C@H]1c1ncc(-c2ccc(-c3ccc(C4=CNC([C@@H]5CCCN5C(=O)c5cnc(Cl)c(Cl)c5)N4)cc3)cc2)[nH]1 (stereo partly drawn) [Compound S-133]	<10 fold
CC(C)(C)[C@H](NC(=O)C1CCCCO1)c1nc(-c2ccc(-c3ccc(-c4c[nH]c([C@@H](NC(=O)C5CCCCO5)C(C)(C)C)n4)cc3)cc2)c[nH]1 (stereo partly drawn) [Compound Y-5]	>100 fold
O=C(OC1CCCC1)N1CCC[C@H]1c1ncc(-c2ccc(-c3ccc(-c4cnc([C@@H]5CCCN5C(=O)OC5CCCC5)[nH]4)cc3)cc2)[nH]1 [Compound S-225]	>10 fold
CN(C(=O)C(=O)N[C@H](c1nc(-c2ccc(-c3ccc(-c4c[nH]c([C@@H](NC(=O)C(=O)N(C)C5CC5)C(C)(C)C)n4)cc3)cc2)c[nH]1)C(C)(C)C)C1CC1 [Compound W-50]	>100 fold
CC(C)(C)[C@H](NC(=O)C1(c2ccc(Cl)cc2)CCC1)c1nc(-c2ccc(-c3ccc(-c4c[nH]c([C@@H](NC(=O)C5(c6ccc(Cl)cc6)CCC5)C(C)(C)C)n4)cc3)cc2)c[nH]1 [Compound N-57]	>100 fold
O=C(OCc1ccccc1)N1CCC[C@H]1c1ncc(-c2ccc(-c3ccc(-c4cnc([C@@H]5CCCN5C(=O)OCc5ccccc5)[nH]4)cc3)cc2)[nH]1 [Compound S-216]	>10 fold

Compound	Fold-Synergistic 1a (Q30E)
Cc1cc(-c2ccc(-c3c[nH]c([C@@H](NC(=O)C4CC(F)(F)C4)C(C)C)n3)cc2)ccc1-c1c[nH]c([C@@H](NC(=O)C2CC(F)(F)C2)C(C)C)n1.O=C(O)C(F)(F)F [Compound N-78]	>100 fold
CCNC(=O)C(=O)N[C@H](c1nc(-c2ccc(-c3ccc(-c4c[nH]c([C@@H](NC(=O)C(=O)OC(C)(C)C)C(C)(C)C)n4)cc3)cc2)c[nH]1)C(C)(C)C [Compound W-43B]	>100 fold
CC(C)[C@H](NC(=O)c1cccc(C#N)c1)c1ncc(-c2ccc(-c3ccc(-c4cnc([C@@H](NC(=O)c5cccc(C#N)c5)C(C)C)[nH]4)cc3)cc2)[nH]1 [Compound S-72]	>100 fold
CC(C)[C@H](NC(=O)C(=O)c1ccccc1OC(F)F)c1ncc(-c2ccc(-c3ccc(-c4cnc([C@@H](NC(=O)C(=O)c5ccccc5OC(F)F)C(C)C)[nH]4)cc3)cc2)[nH]1 [Compound P-122]	>100 fold
CC(C)(C)C(NC(=O)C1(O)CCCOC1)c1nc(-c2ccc(-c3ccc(-c4c[nH]c(C(NC(=O)C5(O)CCCOC5)C(C)(C)C)n4)cc3)cc2)c[nH]1 (mixture of isomers) [Compound Y-102]	>100 fold
CC(C)[C@H](NC(=O)c1cc(F)cc(F)c1)c1ncc(-c2ccc(-c3ccc(-c4cnc([C@@H](NC(=O)c5cc(F)cc(F)c5)C(C)C)[nH]4)cc3)cc2)[nH]1 [Compound Y-23]	>100 fold
CC(O)C1(C(=O)N[C@H](c2nc(-c3ccc(-c4ccc(-c5c[nH]c([C@@H](NC(=O)C6(C(C)O)CCCCC6)C(C)(C)C)n5)cc4)cc3)c[nH]2)C(C)(C)C)CCCCC1 (single isomer, unassigned) [Compound N-152C]	>100 fold
CC(C)[C@H](NC(=O)c1cc(F)ccc1F)c1ncc(-c2ccc(-c3ccc(-c4cnc([C@@H](NC(=O)c5cc(F)ccc5F)C(C)C)[nH]4)cc3)cc2)[nH]1 [Compound S-63]	>100 fold
CC(C)(C)OC(=O)N1CC(C)(C)OCC1C(=O)NC(c1nc(-c2ccc(-c3ccc(-c4c[nH]c(C(NC(=O)C5COC(C)(C)CN5C(=O)OC(C)(C)C)C(C)(C)C)n4)cc3)cc2)c[nH]1)C(C)(C)C [Compound L-60]	>100 fold
CC(C)(C)[C@H](NC(=O)C1(C2(O)CCC(F)(F)CC2)CC1)c1ncc(C#Cc2ccc3cc(-c4cnc([C@@H](NC(=O)C5(C6(O)CCC(F)(F)CC6)CC5)C(C)(C)C)[nH]4)ccc3c2)[nH]1 [Compound B5B]	>100 fold
CC(C)CCC(=O)N[C@H](c1ncc(-c2ccc(-c3ccc(-c4cnc([C@@H](NC(=O)CCC(C)C)C(C)C)[nH]4)cc3)cc2)[nH]1)C(C)C [Compound S-32]	>100 fold
CC(C)(C)OC(=O)NC1(C(=O)N[C@H](c2nc(-c3ccc(-c4ccc(-c5c[nH]c([C@@H](NC(=O)C6(NC(=O)OC(C)(C)C)CC6(F)F)C(C)(C)C)n5)cc4)cc3)c[nH]2)C(C)(C)C)CC1(F)F (single isomer, unassigned) [Compound W-13]	>100 fold
O=C(C(=O)N1C(c2nc(-c3ccc(-c4ccc(-c5c[nH]c(C6CC7C[C@@H]7N6C(=O)C(=O)N6CCC(F)(F)CC6)n5)cc4)cc3)c[nH]2)C[C@@H]2CC21)N1CCC(F)(F)CC1 (stereo partly drawn) [Compound W-243]	>100 fold
[2H]C([2H])([2H])C(=O)NC1(C(=O)N[C@H](c2nc(-c3ccc(-c4ccc(-c5c[nH]c([C@@H](NC(=O)C6(NC(=O)C([2H])([2H])[2H])CCCCC6)C(C)(C)C)n5)cc4)cc3)c[nH]2)C(C)(C)C)CCCCC1 [Compound W-272]	>100 fold
CC(C)(C)[C@H](NC(=O)C1C2CCOC21)c1nc(-c2ccc(-c3ccc(-c4cnc([C@@H](NC(=O)C5C6CCOC65)C(C)(C)C)[nH]4)cc3)cc2)c[nH]1 (single isomer, unassigned) [Compound B-165]	>100 fold
O=C(c1cccc(Oc2ccccc2)c1)N1CCC[C@H]1c1ncc(-c2ccc(-c3ccc(-c4cnc([C@@H]5CCCN5C(=O)c5cccc(Oc6ccccc6)c5)[nH]4)cc3)cc2)[nH]1 [Compound S-116]	<10 fold
CC(C)(C)[C@H](NC(=O)C1CCC(F)(F)CC1)c1nc(-c2ccc(-c3ncc(-c4c[nH]c([C@@H](NC(=O)C5CCC(F)(F)CC5)C(C)(C)C)n4)cn3)cc2)c[nH]1 [Compound N-104]	>100 fold
CC(C)[C@H](NC(=O)CC1CC1)c1ncc(-c2ccc(-c3ccc(-c4cnc([C@@H](NC(=O)CC5CC5)C(C)C)[nH]4)cc3)cc2)[nH]1 [Compound S-50]	>10 fold
Cc1cc(CC(=O)N[C@H](c2ncc(-c3ccc(-c4ccc(-c5cnc([C@@H](NC(=O)Cc6cc(C)no6)C(C)C)[nH]5)cc4)cc3)[nH]2)C(C)C)on1 [Compound P-76]	>10 fold
